Source: patent publication US20220380341A1, “INHIBITORS OF HIV-1 NEF FOR THE TREATMENT OF HIV DISEASE” (priority 2018, published 2022)
Read-outs that look alike come from different tables or passages of the source.

Columns and labels:
HIV-1NL4-3 = test: HIV-1 infectivity assay in TZM-bl reporter cell line (LTR-luciferase, 48 h); type: cell-based; settings: Human immunodeficiency virus 1, TZM-bl
Summary of the method: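 TZM-bl cells infected with HIV-1NL4-3 ± compound (1 μM), luciferase measured at 48 h. Normalization: DMSO/wild-type = 0% inhibition, DMSO/Nef-defective = 100% of Nef-dependent effect.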

TZM-bl cell line = type: cell-based; settings: human, 1 μM
Summary of the method: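 Nef-dependent infectivity in TZM-bl cells: HIV-1NL4-3 infection with 1 μM compound, luciferase read at 48 h, normalized against DMSO wild-type and Nef-defective controls. Compound cytotoxicity in uninfected cells measured by Cell Titer Blue.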

HIV-1 NefNL4-3 = HIV-1 NefNL4-3 (Human immunodeficiency virus type 1 group M subtype B, UniProt P03406, A33V/T15A/T51N/V11I); test: Surface plasmon resonance binding to recombinant full-length Nef (NL4-3); settings: for RU30/RUNef (extent of binding): response units at 30 μM relative to Nef immobilized on the SPR chip; for Nef NL4-3 Binding, SPR 1:1 or 2-site fitting KD1: 1:1 Langmuir fit where the KD2 cell says '1 to 1 fitting', else 2-site fit
[1] = 48 h, Table 1, TZM-bl cells, 1 μM, 48 h, 100% = Nef-defective HIV-1, read-out: HIV-1 Infectivity % Inhibition Norm. to Δ-Nef @ 1 μM
[2] = 1.0 μM, TZM-bl reporter cell line, Table 4, read-out: % Infectivity Inhibition
[3] = KD, M, Table 4, SPR fit 2-step induced fit, KD = koff/kon × koff2/(koff2 + kon2)
[4] = Nef NL4-3 Binding, SPR 2-state fitting KD, Table 1, 2-step induced-fit model
[5] = read-out: Nef NL4-3 Binding, SPR 1:1 or 2-site fitting KD2, Table 1, 2-site fit, second component
[6] = KD, M, Table 4, SPR fit 1:1 Langmuir, KD = koff/kon
[7] = Table 4, 1:1 Langmuir fit, T = 1/koff

Compound	inhibition at 1 µM (HIV-1NL4-3; [1])	Percent Viability @ 1 μM (TZM-bl cells) (TZM-bl cell line)	Kd (HIV-1 NefNL4-3)	other results
O=S(=O)(C1CCCC1)N1CCC(c2nn(-c3nc4ccccc4[nH]3)c(O)c2CCc2ccc(F)cc2)CC1 [Compound I-753, 1-(1H-1,3-benzodiazol-2-yl)-3-[1-(cyclopentanesulfonyl)piperidin-4-yl]-4-[2-(4-fluorophenyl)ethyl]-1H-pyrazol-5-ol]	76.5%	95.8%	20.4 nM	
CC(=O)N1CCCC(c2nn(-c3nc4ccccc4[nH]3)c(O)c2CCc2ccc(F)cc2)C1 (stereo not shown) [Compound I-754, 1-{3-[1-(1H-1,3-benzodiazol-2-yl)-4-[2-(4-fluorophenyl)ethyl]-5-hydroxy-1H-pyrazol-3-yl]piperidin-1-yl}ethan-1-one]	37.4%	97.2%	477 nM	inhibition at 1 µM (HIV-1NL4-3; [2]): 37.4%; % Cell Viability (TZM-bl cell line): 97.2%; Kd (HIV-1 NefNL4-3; [3]): 0.0233 nM; Kd (HIV-1 NefNL4-3; [4]): 0.0233 nM; T, minutes (residence time) (HIV-1 NefNL4-3; Table 4, 2-step induced fit, T = 1/koff2): 8.05E + 05 minutes; Kd (HIV-1 NefNL4-3; [5]): 7320 nM; RU30/RUNef (extent of binding) (HIV-1 NefNL4-3): 5.14E- 03
O=C(c1cnccn1)N1CCCC(c2nn(-c3nc4ccccc4[nH]3)c(O)c2CCc2ccc(F)cc2)C1 (stereo not shown) [Compound I-756, 1-(1H-1,3-benzodiazol-2-yl)-4-[2-(4-fluorophenyl)ethyl]-3-[1-(pyrazine-2-carbonyl)piperidin-3-yl]-1H-pyrazol-5-ol]	34.3%	101.9%		Nef NL4-3 Binding, SPR 1:1 or 2-site fitting KD1 (HIV-1 NefNL4-3; Table 1): No Interaction
O=C(Cc1ccncc1)N1CCCC(c2nn(-c3nc4ccccc4[nH]3)c(O)c2CCc2ccc(F)cc2)C1 (stereo not shown) [Compound I-757, 1-{3-[1-(1H-1,3-benzodiazol-2-yl)-4-[2-(4-fluorophenyl)ethyl]-5-hydroxy-1H-pyrazol-3-yl]piperidin-1-yl}-2-(pyridin-4-yl)ethan-1-one]	17.2%	102.8%	2390 nM	
O=S(=O)(c1cccnc1)N1CCCC(c2nn(-c3nc4ccccc4[nH]3)c(O)c2CCc2ccc(F)cc2)C1 (stereo not shown) [Compound I-758, 1-(1H-1,3-benzodiazol-2-yl)-4-[2-(4-fluorophenyl)ethyl]-3-[1-(pyridine-3-sulfonyl)piperidin-3-yl]-1H-pyrazol-5-ol]	54.9%	99.8%	63.1 nM	inhibition at 1 µM (HIV-1NL4-3; [2]): 54.9%; % Cell Viability (TZM-bl cell line): 99.8%; Kd (HIV-1 NefNL4-3; [6]): 68.1 nM; T, minutes (residence time) (HIV-1 NefNL4-3; [7]): 9.21E + 01 minutes; RU30/RUNef (extent of binding) (HIV-1 NefNL4-3): 2.95E- 03
O=C(c1cnccn1)N1CCCC1c1nn(-c2nc3ccccc3[nH]2)c(O)c1CCc1ccc(F)cc1 (stereo not shown) [Compound I-759, 1-(1H-1,3-benzodiazol-2-yl)-4-[2-(4-fluorophenyl)ethyl]-3-[1-(pyrazine-2-carbonyl)pyrrolidin-2-yl]-1H-pyrazol-5-ol]	-7.6%	98.2%	221 nM	
O=C(Cc1ccncc1)N1CCCC1c1nn(-c2nc3ccccc3[nH]2)c(O)c1CCc1ccc(F)cc1 (stereo not shown) [Compound I-760, 1-{2-[1-(1H-1,3-benzodiazol-2-yl)-4-[2-(4-fluorophenyl)ethyl]-5-hydroxy-1H-pyrazol-3-yl]pyrrolidin-1-yl}-2-(pyridin-4-yl)ethan-1-one]	46.5%	96.8%	780 nM	inhibition at 1 µM (HIV-1NL4-3; [2]): 46.5%; % Cell Viability (TZM-bl cell line): 96.8%; Kd (HIV-1 NefNL4-3; [6]): 780 nM; T, minutes (residence time) (HIV-1 NefNL4-3; [7]): 7.31E + 00 minutes; RU30/RUNef (extent of binding) (HIV-1 NefNL4-3): 1.38E- 03
CC(C)(O)C(=O)N1CCCC1c1nn(-c2nc3ccccc3[nH]2)c(O)c1CCc1ccc(F)cc1 (stereo not shown) [Compound I-761, 1-{2-[1-(1H-1,3-benzodiazol-2-yl)-4-[2-(4-fluorophenyl)ethyl]-5-hydroxy-1H-pyrazol-3-yl]pyrrolidin-1-yl}-2-hydroxy-2-methylpropan-1-one]	-3.8%	101.5%	854 nM	
O=C(c1c(O)cc(O)cc1O)N1CCCC1c1nn(-c2nc3ccccc3[nH]2)c(O)c1CCc1ccc(F)cc1 (stereo not shown) [Compound I-762, 2-{2-[1-(1H-1,3-benzodiazol-2-yl)-4-[2-(4-fluorophenyl)ethyl]-5-hydroxy-1H-pyrazol-3-yl]pyrrolidine-1-carbonyl}benzene-1,3,5-triol]	25.7%	98.9%	277 nM	inhibition at 1 µM (HIV-1NL4-3; [2]): 25.7%; % Cell Viability (TZM-bl cell line): 98.6%; Kd (HIV-1 NefNL4-3; [3]): 3.98 nM; Kd (HIV-1 NefNL4-3; [4]): 3.98 nM; Kd (HIV-1 NefNL4-3; [5]): 7460 nM
O=C(CN1CCOCC1)N1CCCC1c1nn(-c2nc3ccccc3[nH]2)c(O)c1CCc1ccc(F)cc1 (stereo not shown) [Compound I-763, 1-{2-[1-(1H-1,3-benzodiazol-2-yl)-4-[2-(4-fluorophenyl)ethyl]-5-hydroxy-1H-pyrazol-3-yl]pyrrolidin-1-yl}-2-(morpholin-4-yl)ethan-1-one]	11%	97.6%	422 nM	
O=C(OCc1ccccc1)N1CCC(Cc2nn(-c3nc4ccccc4[nH]3)c(O)c2CCc2ccc(F)cc2)CC1 [Compound I-764, benzyl4-{[1-(1H-1,3-benzodiazol-2-yl)-4-[2-(4-fluorophenyl)ethyl]-5-hydroxy-1H-pyrazol-3-yl]methyl}piperidine-1-carboxylate]	47.4%	100.6%		Nef NL4-3 Binding, SPR 1:1 or 2-site fitting KD1 (HIV-1 NefNL4-3; Table 1): No Interaction
O=C(C1CCOC1)N1CCC(Cc2nn(-c3nc4ccccc4[nH]3)c(O)c2CCc2ccc(F)cc2)CC1 (stereo not shown) [Compound I-765, 1-(1H-1,3-benzodiazol-2-yl)-4-[2-(4-fluorophenyl)ethyl]-3-{[1-(oxolane-3-carbonyl)piperidin-4-yl]methyl}-1H-pyrazol-5-ol]	13.5%	99.3%		Nef NL4-3 Binding, SPR 1:1 or 2-site fitting KD1 (HIV-1 NefNL4-3; Table 1): No Interaction
O=C(c1cccc(O)n1)N1CCC(Cc2nn(-c3nc4ccccc4[nH]3)c(O)c2CCc2ccc(F)cc2)CC1 [Compound I-766, 6-(4-{[1-(1H-1,3-benzodiazol-2-yl)-4-[2-(4-fluorophenyl)ethyl]-5-hydroxy-1H-pyrazol-3-yl]methyl}piperidine-1-carbonyl)pyridin-2-ol]	46.9%	99.5%	481 nM	
O=C(c1cnccn1)N1CCC(Cc2nn(-c3nc4ccccc4[nH]3)c(O)c2CCc2ccc(F)cc2)CC1 [Compound I-767, 1-(1H-1,3-benzodiazol-2-yl)-4-[2-(4-fluorophenyl)ethyl]-3-{[1-(pyrazine-2-carbonyl)piperidin-4-yl]methyl}-1H-pyrazol-5-ol]	18.9%	97.6%	425 nM	
CN1CCN(CC(=O)N2CCC(Cc3nn(-c4nc5ccccc5[nH]4)c(O)c3CCc3ccc(F)cc3)CC2)CC1 [Compound I-768, 1-(4-{[1-(1H-1,3-benzodiazol-2-yl)-4-[2-(4-fluorophenyl)ethyl]-5-hydroxy-1H-pyrazol-3-yl]methyl}piperidin-1-yl)-2-(4-methylpiperazin-1-yl)ethan-1-one]	-34.5%	99.8%	3840 nM	
